Where a name gives a salt, the structure may show the parent alone.
How the values were obtained:
[1] = system: human liver microsomes (HLMs); test: Metabolic stability of seven diterpenoids in human liver microsomes; format: in vitro ADME; conditions: 10 µM, 0.5 mg/mL HLMs, NGS, 37 °C
Procedure: For metabolism profiling, 10 µM of each of the seven compounds isolated from C. cassia bark was added to 0.5 mg/mL of pooled HLMs and 0.1 M potassium phosphate buffer (pH 7.4). The HLMs were then preincubated at 37 °C for 1 min. After adding NGS, the reaction mixture was incubated at 37 °C for 60 min. After the 60 min incubation period, 50 µL of the reaction mixture was transferred to a new tube, and 50 µL of 100% ACN containing 0.1% formic acid and tolbutamide (internal standard) was added to terminate the reaction. The mixture was then vortexed, followed by centrifugation at 15,700× g (13,000 rpm) for 10 min (Eppendorf AG, Hamburg, Germany). Finally, 90 µL of the supernatant was transferred to a vial and injected into a C18 column for LC–MS/MS analysis.
The metabolism screening of the seven compounds was performed using an HPLC system (Thermo Fisher Scientific, Bremen, Germany) equipped with an HPG-3200SD standard binary pump, a WPS-3000 TRS analytical autosampler, and a TCC-3000 SD column compartment. The HPLC system was coupled with an HR-MS (Q-Exactive Focus Quadrupole-Orbitrap MS; Thermo Fisher Scientific, Waltham, MA, USA) at the Mass Spectrometry Convergence Research Center. The full MS resolution and scan ranges were 70,000 and 60–900 m/z, respectively. The MS/MS resolution was 35,000. The mass spectra were obtained in negative ion electrospray mode. A heated electrospray ionization (HESI-II) probe was used as an ion generator, with nitrogen as the sheath gas at 35 aux units and auxiliary gas at 12 aux units. The mass spectrometer was operated in negative ionization mode. The other parameters were as follows: spray voltage, 3.5 kV; capillary temperature, 320 °C; S-lens radio frequency level, 50; and aux gas heater temperature, 400 °C.
The mobile phase consisted of 100% water with 0.1% formic acid (mobile phase A) and 100% ACN with 0.1% formic acid (mobile phase B). For metabolic stability, the gradient conditions were set as follows: 5% of B at 0.5–2.0 min, 5–50% of B at 2.0–4.5 min, 50% of B at 4.5–7.0 min, and 50–5% of B at 7.0–10.0 min at 40 °C with a flow rate of 0.2 mL/min. For metabolite identification, the gradient conditions were as follows: 10% of B at 0–5 min, 10–55% of B at 5–15 min, 55% of B at 15–23 min, and 55–10% of B at 23–30 min with a flow rate of 0.25 mL/min. Chromatographic separation was performed using a Kinetex C18 column (150 × 2.1 mm, 2.6 μm, XB-C18 100 Å, S/No: H19-070128; Phenomenex, Torrance, CA, USA). Data were analyzed using Xcalibur version 4.0 software (Thermo Fisher Scientific, Waltham, MA, USA).
To confirm their metabolic stability, seven diterpenoids (AHC, anhydrocinnzeylanol, cinncassiol A, cinncassiol B, cinnzeylanol, cinnzeylanone, and cinnzeylanine) derived from the bark of C. cassia were incubated with HLMs in the presence of the NGS for 60 min (Figure 1B). The metabolic stability of each compound was determined according to the ratio of the peak area at 60 min to that at 0 min. […] Therefore, we identified the metabolites of AHC produced in HLMs.

CYPs = test: Metabolism of AHC in HLMs with SKF-525A, a nonselective CYP inhibitor; format: in vitro ADME, human; conditions: 10 µM AHC, 1 mg/mL HLMs, NGS, 60 min
Procedure: To investigate CYP-mediated metabolism, 10 µM AHC was mixed with 1 mg/mL pooled HLMs and 0.1 M potassium phosphate buffer (pH 7.4). Then, SKF-525A, a general inhibitor of CYPs, was added at concentrations of 0.5, 1, and 5 mM. The reactions were initiated with the addition of NGS at […] for 60 min. After 60 min, the reactions were terminated by adding 400 µL of 100% acetonitrile. The mixtures were then centrifuged at 15,700× g for 10 min. Subsequently, 550 µL of supernatant was dried in a vacuum concentrator. The residue was dissolved in 100 µL of 20% MeOH (0.1% formic acid), and 5 µL of this sample was injected into a C18 column for LC–MS/MS analysis.
To confirm the metabolism of AHC by CYP enzymes, AHC was incubated in HLMs with SKF-525A, i.e., a nonspecific CYP inhibitor (Figure S7). […] Consequently, as the metabolism of AHC was inhibited by SKF-525A treatment, the production of all metabolites was reduced in an SKF-525A concentration-dependent manner.

SMILES | decrease of stability in HLMs (peak area 60 min vs 0 min) [1] | fraction metabolized in HLMs (metabolized by) ([1]; 60 min) [%] | effect of SKF-525A on the metabolism of AHC in HLMs (CYPs)
CC1=C(C(C)C)C[C@@]2(O)[C@@]3(C)CC(=O)O[C@@]4([C@H](O)[C@@H](C)CC[C@]34O)[C@@]12O [anhydrocinnzeylanol] | approximately 20% | 20 | 
CC1CCC2(O)C3(C)CC4(O)OC2(C1=O)C1(O)C3(O)CC(O)(C(C)C)C41C (stereo not shown) [cinnzeylanone] | approximately 20% |  | 
CCCC(C(=O)OCCN(CC)CC)(c1ccccc1)c1ccccc1 [SKF-525A, proadifen hydrochloride, reference compound] |  |  | inhibited

— paper PMC8400920, “Metabolism of Diterpenoids Derived from the Bark of Cinnamomum cassia in Human Liver Microsomes” (Pharmaceutics, 2021)
